Assays:
Type in all cases: in vivo, male Whistar rats
[1] = tested on: parasympathetic nerve (vagus nerve) innervating the stomach; assay: Test Example 1: neural activity of distal branches of vagus (parasympathetic) nerve for the stomach (GVNA) after intragastric administration; conditions: urethane-anesthetized rats; intragastric 0.015 mg/0.5 mL/300 g of body weight; measured for 60 minutes; percentage of value at 0 minutes (100%); FIG. 1
Description: (§1) The effect of the intragastric administration of the compound represented by Structural Formula (1) on the activity of the parasympathetic nerve innervating the stomach, the pancreas, or the intestine was tested in the following manner. For the experiment, male Whistar rats (approximately 9 weeks old) each having a body weight of approximately 300 g were kept in a 24° C. thermostatic animal room for 1 week or longer with a 12-hour light-dark cycle (lighting from 8:00 to 20:00). On the day of the experiment, the rats were fasted for 3 hours, followed by anesthetizing with urethane. A cannula for intragastric administration was inserted into each of the rats, and then distal branches of the parasympathetic nerve (vagus nerve) innervating the stomach, the pancreas, or the intestines (small intestine and large intestine) were lifted with a silver electrode, and the electrical activity thereof was measured. […] In addition, as a control, water serving as a solvent was intragastrically administered using the cannula at a dose of 0.5 mL/300 g of body weight, and the change in the neural activity of the distal branches of the above parasympathetic nerves was measured electrophysiologically for 60 minutes. […]

[2] = tested on: parasympathetic nerve (vagus nerve) innervating the pancreas; assay: Test Example 1: neural activity of distal branches of vagus (parasympathetic) nerve for the pancreas (PVNA) after intragastric administration; conditions: urethane-anesthetized rats, measured for 60 minutes, percentage of value at 0 minutes (100%), FIG. 2
Description: as §1

[3] = tested on: parasympathetic nerve (vagus nerve) innervating the intestines (small intestine and large intestine); assay: Test Example 1: neural activity of distal branches of vagus (parasympathetic) nerve for the intestine (IVNA) after intragastric administration; conditions: urethane-anesthetized rats, measured for 60 minutes, percentage of value at 0 minutes (100%), FIG. 3
Description: as §1

[4] = intragastric 0.00015 mg/0.5 mL/300 g of body weight
[5] = intragastric 0.0015 mg/0.5 mL/300 g of body weight

Compound: COc1cc(CCC(=O)O)ccc1O [3-(4-hydroxy-3-methoxyphenyl)propionic acid]
- gastric vagal nerve activity (GVNA) value compared with the water group [1]: GVNA value higher than the GVNA value of the group to which water serving as the solvent was administered
- pancreatic vagal nerve activity (PVNA) value compared with the water group [2, 4]: PVNA value higher than the PVNA value of the group to which water serving as the solvent was administered
- pancreatic vagal nerve activity (PVNA) value compared with the water group [2, 5]: PVNA value higher than the PVNA value of the group to which water serving as the solvent was administered
- intestinal vagal nerve activity (IVNA) value compared with the water group [3, 4]: IVNA values higher than the IVNA value of the group to which water serving as the solvent was administered
- intestinal vagal nerve activity (IVNA) value compared with the water group [3, 5]: IVNA values higher than the IVNA value of the group to which water serving as the solvent was administered
